Structures are written as SMILES. ≈ marks a conversion by molar mass, not a printed value. Like-named read-outs stand apart in the source and are kept apart here. Marks after values point to notes of the source that are not given here.

The nature of one data set: physchem. Conditions: 25 °C, thermodynamic from solid.
For data set [1] the following is noted: Beagle, in vivo, po; for Dog F % (suspension): pH 2.
[2] abbreviates: fasted state simulated intestinal fluid (FaSSIF), fassif.
The mark [3] stands for this setting: fed state simulated intestinal fluid (FeSSIF), fessif.
The mark [4] stands for this setting: 0.1N HCL, 1.0% DMSO, 24-hour incubation at ambient temperature, maximum theoretical compound concentration 100 μM.
Setting [5] is: 1×PBS buffer (pH 7.4), 1.0% DMSO, 24-hour incubation at ambient temperature, maximum theoretical compound concentration 100 μM.

With `CC(C)(C#Cc1ccc(-c2ccc(Cl)c3c(N(C(=O)CCCNC(=O)OCOP(=O)(O)O)S(C)(=O)=O)nn(CC(F)(F)F)c23)c([C@H](Cc2cc(F)cc(F)c2)NC(=O)Cn2nc(C(F)(F)F)c3c2C(F)(F)[C@@H]2C[C@H]32)n1)S(C)(=O)=O` [Compound 33, (phosphonooxy)methyl (4-(N-(4-chloro-7-(2-((S)-1-(2-((3bS,4aR)-5,5-difluoro-3-(trifluoromethyl)-3b,4,4a,5-tetrahydro-111-cyclopropa[3,4]cyclopenta[1,2-c]pyrazol-1-yl)acetamido)-2-(3,5-difluorophenyl)ethyl)-6-(3-methyl-3-(methylsulfonyl)but-1-yn-1-yl)pyridin-3-yl)-1-(2,2,2-trifluoroethyl)-1H-indazol-3-yl)methylsulfonamido)-4-oxobutyl)carbamate], the concentration in solution in the data set “physchem” (setting [2]) (solubility) was 326 µg/mL (≈ 270 µM). The compound also displayed a solubility in “physchem” (setting [3]) of 300 µg/mL (≈ 248 µM). Besides, the “pH 2 solubility” value under setting [4] turned out to be 1 μM. Also, under setting [5], the “pH 7 solubility” value came to 75 μM. Further, in data set [1], the “Dog F % (solution)” value was 33^b % and the “Dog F % (suspension)” value was found to be 17%.
For `CN(C(=O)N(c1nn(CC(F)(F)F)c2c(-c3ccc(C#CC(C)(C)S(C)(=O)=O)nc3[C@H](Cc3cc(F)cc(F)c3)NC(=O)Cn3nc(C(F)(F)F)c4c3C(F)(F)[C@@H]3C[C@H]43)ccc(Cl)c12)S(C)(=O)=O)c1ncccc1COP(=O)(O)O` [Compound 53, (2-(3-(4-chloro-7-(2-((S)-1-(2-((3bS,4aR)-5,5-difluoro-3-(trifluoromethyl)-3b,4,4a,5-tetrahydro-1H-cyclopropa[3,4]cyclopenta[1,2-c]pyrazol-1-yl)acetamido)-2-(3,5-difluorophenyl)ethyl)-6-(3-methyl-3-(methylsulfonyl)but-1-yn-1-yl)pyridin-3-yl)-1-(2,2,2-trifluoroethyl)-1H-indazol-3-yl)-1-methyl-3-(methylsulfonyl)ureido)pyridin-3-yl)methyl dihydrogen phosphate], the figures for the solubility in “physchem” (fassif) and in “physchem” (fessif) were 391 µg/mL and 958 µg/mL, respectively. Further, under “pH 2”, the “pH 2 solubility” value was 2/78 μM. In addition, the “pH 7 solubility” value (pH 7.4) is on record as 2/78 μM. Moreover, the “Dog F % (suspension)” value in data set [1] turned out to be 5%.
Consider `CC(C)(C#Cc1ccc(-c2ccc(Cl)c3c(N(C(=O)CCC(=O)OCOP(=O)(O)O)S(C)(=O)=O)nn(CC(F)(F)F)c23)c([C@H](Cc2cc(F)cc(F)c2)NC(=O)Cn2nc(C(F)(F)F)c3c2C(F)(F)[C@@H]2C[C@H]32)n1)S(C)(=O)=O` [Compound 28, (phosphonooxy)methyl 4-(N-(4-chloro-7-(2-((S)-1-(2-((3bS,4aR)-5,5-difluoro-3-(trifluoromethyl)-3b,4,4a,5-tetrahydro-1H-cyclopropa[3,4]cyclopenta[1,2-c]pyrazol-1-yl)acetamido)-2-(3,5-difluorophenyl)ethyl)-6-(3-methyl-3-(methylsulfonyl)but-1-yn-1-yl)pyridin-3-yl)-1-(2,2,2-trifluoroethyl)-1H-indazol-3-yl)methylsulfonamido)-4-oxobutanoate], for which the solubility is 555 µg/mL (≈ 471 µM) in “physchem” (setting [2]) and 319 µg/mL (≈ 271 µM) in the data set “physchem” (setting [3]). In addition, the “pH 2 solubility” value under setting [4] is recorded as 1 μM. Moreover, the “pH 7 solubility” value under setting [5] worked out at 86 μM. The “Dog F % (solution)” value in data set [1] was 51^b %.
In the case of `CC(C)(CNC(=O)OCOP(=O)(O)O)CC(=O)N(c1nn(CC(F)(F)F)c2c(-c3ccc(C#CC(C)(C)S(C)(=O)=O)nc3[C@H](Cc3cc(F)cc(F)c3)NC(=O)Cn3nc(C(F)(F)F)c4c3C(F)(F)[C@@H]3C[C@H]43)ccc(Cl)c12)S(C)(=O)=O` [Compound 41, (phosphonooxy)methyl (4-(N-(4-chloro-7-(2-((S)-1-(2-((3bS,4aR)-5,5-difluoro-3-(trifluoromethyl)-3b,4,4a,5-tetrahydro-111-cyclopropa[3,4]cyclopenta[1,2-c]pyrazol-1-yl)acetamido)-2-(3,5-difluorophenyl)ethyl)-6-(3-methyl-3-(methylsulfonyl)but-1-yn-1-yl)pyridin-3-yl)-1-(2,2,2-trifluoroethyl)-1H-indazol-3-yl)methylsulfonamido)-2,2-dimethyl-4-oxobutyl)carbamate], the solubility is 1140 µg/mL (≈ 927 µM) in “physchem” (setting [2]) and 440 µg/mL (≈ 356 µM) in the data set “physchem” (setting [3]). Moreover, under setting [4], the “pH 2 solubility” value turned out to be 1 μM. The “pH 7 solubility” value under setting [5] was determined as 100 μM. Moreover, in data set [1], the “Dog F % (suspension)” value was found to be 4%.
With `CC(C)(C#Cc1ccc(-c2ccc(Cl)c3c(N(C(=O)CCCN(CC(=O)O)C(=O)OCOP(=O)(O)O)S(C)(=O)=O)nn(CC(F)(F)F)c23)c([C@H](Cc2cc(F)cc(F)c2)NC(=O)Cn2nc(C(F)(F)F)c3c2C(F)(F)[C@@H]2C[C@H]32)n1)S(C)(=O)=O` [Compound 30, N-(4-(N-(4-chloro-7-(2-((S)-1-(2-((3bS,4aR)-5,5-difluoro-3-(trifluoromethyl)-3b,4,4a,5-tetrahydro-1H-cyclopropa[3,4]cyclopenta[1,2-c]pyrazol-1-yl)acetamido)-2-(3,5-difluorophenyl)ethyl)-6-(3-methyl-3-(methylsulfonyl)but-1-yn-1-yl)pyridin-3-yl)-1-(2,2,2-trifluoroethyl)-1H-indazol-3-yl)methylsulfonamido)-4-oxobutyl)-N-(((phosphonooxy)methoxy)carbonyl)glycine], the solubility in the data set “physchem” (setting [2]) was > 1100 µg/mL. This compound gave a solubility in the data set “physchem” (setting [3]) of 5830 µg/mL (≈ 4600 µM). Further, the “pH 2 solubility” value under setting [4] is 1 μM. Also, the “pH 7 solubility” value under setting [5] is 100 μM. In data set [1], the “Dog F % (solution)” value is given as 18^c % and the “Dog F % (suspension)” value was 18%.
For the compound `CN(C(=O)N(c1nn(CC(F)(F)F)c2c(-c3ccc(C#CC(C)(C)S(C)(=O)=O)nc3[C@H](Cc3cc(F)cc(F)c3)NC(=O)Cn3nc(C(F)(F)F)c4c3C(F)(F)[C@@H]3C[C@H]43)ccc(Cl)c12)S(C)(=O)=O)c1ncc(C(=O)O)cc1COP(=O)(O)O` [Compound 62, 6-(3-(4-chloro-7-(2-((S)-1-(2-((3bS,4aR)-5,5-difluoro-3-(trifluoromethyl)-3b,4,4a,5-tetrahydro-1H-cyclopropa[3,4]cyclopenta[1,2-c]pyrazol-1-yl)acetamido)-2-(3,5-difluorophenyl)ethyl)-6-(3-methyl-3-(methylsulfonyl)but-1-yn-1-yl)pyridin-3-yl)-1-(2,2,2-trifluoroethyl)-1H-indazol-3-yl)-1-methyl-3-(methylsulfonyl)ureido)-5-((phosphonooxy)methyl)nicotinic acid], the solubility in “physchem” (setting [2]) was 490 µg/mL (≈ 390 µM). In addition, under setting [4], the “pH 2 solubility” value was determined as 1 μM. Further, the “pH 7 solubility” value under setting [5] worked out at 67 μM. For the same compound, the “Dog F % (solution)” value in data set [1] is 8 ^c %.
For the compound `Cc1cc(CC(=O)O)c(C(C)(C)CC(=O)N(c2nn(CC(F)(F)F)c3c(-c4ccc(C#CC(C)(C)S(C)(=O)=O)nc4[C@H](Cc4cc(F)cc(F)c4)NC(=O)Cn4nc(C(F)(F)F)c5c4C(F)(F)[C@@H]4C[C@H]54)ccc(Cl)c23)S(C)(=O)=O)c(OP(=O)(O)O)c1` [Compound 44], the results for the solubility in “physchem” (fassif) and in the data set “physchem” (fessif) were 2870 µg/mL (≈ 2210 µM) and 460 µg/mL (≈ 355 µM), respectively. The “pH 2 solubility” value (pH 2) is 1/100 μM. In addition, under “pH 7.4”, the “pH 7 solubility” value was 1/100 μM. Moreover, the “Dog F % (suspension)” value in data set [1] came to 27%.
For `CC(C)(C#Cc1ccc(-c2ccc(Cl)c3c(N(C(=O)CCCN(CCC(=O)O)C(=O)OCOP(=O)(O)O)S(C)(=O)=O)nn(CC(F)(F)F)c23)c([C@H](Cc2cc(F)cc(F)c2)NC(=O)Cn2nc(C(F)(F)F)c3c2C(F)(F)[C@@H]2C[C@H]32)n1)S(C)(=O)=O` [Compound 31, 3-((4-(N-(4-chloro-7-(2-((S)-1-(2-((3bS,4aR)-5,5-difluoro-3-(trifluoromethyl)-3b,4,4a,5-tetrahydro-1H-cyclopropa[3,4]cyclopenta[1,2-c]pyrazol-1-yl)acetamido)-2-(3,5-difluorophenyl)ethyl)-6-(3-methyl-3-(methylsulfonyl)but-1-yn-1-yl)pyridin-3-yl)-1-(2,2,2-trifluoroethyl)-1H-indazol-3-yl)methylsulfonamido)-4-oxobutyl)(((phosphonooxy)methoxy)carbonyl)amino)propanoic acid], the solubility was 2930 µg/mL (≈ 2290 µM) in the data set “physchem” (setting [2]) and 902 µg/mL (≈ 705 µM) in “physchem” (setting [3]). Further, under setting [4], the “pH 2 solubility” value was 1 μM. The “pH 7 solubility” value under setting [5] was determined as 79 μM. In addition, the “Dog F % (suspension)” value in data set [1] is 15%.
Turning to `CN(C(=O)N(c1nn(CC(F)(F)F)c2c(-c3ccc(C#CC(C)(C)S(C)(=O)=O)nc3[C@H](Cc3cc(F)cc(F)c3)NC(=O)Cn3nc(C(F)(F)F)c4c3C(F)(F)[C@@H]3C[C@H]43)ccc(Cl)c12)S(C)(=O)=O)c1ncccc1CN(CC(=O)O)C(=O)OCOP(=O)(O)O` [Compound 52, N-((2-(3-(4-chloro-7-(2-((S)-1-(2-((3bS,4aR)-5,5-difluoro-3-(trifluoromethyl)-3b,4,4a,5-tetrahydro-1H-cyclopropa[3,4]cyclopenta[1,2-c]pyrazol-1-yl)acetamido)-2-(3,5-difluorophenyl)ethyl)-6-(3-methyl-3-(methylsulfonyl)but-1-yn-1-yl)pyridin-3-yl)-1-(2,2,2-trifluoroethyl)-1H-indazol-3-yl)-1-methyl-3-(methylsulfonyl)ureido)pyridin-3-yl)methyl)-N-(((phosphonooxy)methoxy)carbonyl)glycine], the solubility was 1370 µg/mL (≈ 1020 µM) in the data set “physchem” (setting [2]) and > 6260 µg/mL in “physchem” (setting [3]). Besides, under setting [4], the “pH 2 solubility” value came to 2 μM. In addition, the “pH 7 solubility” value under setting [5] is listed as 100 μM. Also, the “Dog F % (suspension)” value in data set [1] came to 24%.
